Measured values taken from ChEMBL document CHEMBL5441381, “ASAP - In vitro antiviral effect” (2024).

Legend:
SARS-CoV-2 [1] = test: (§1) Functional immunofluorescence assay to measure dose dependent changes in antiviral-drug inhibitory efficacy against hCoV-19/USA-WA1/2020 in HeLa-ACE2 cells which are seeded prior to drug treatment, then infected with hCoV-19/USA-WA1/2020. Cells are fixed with 10 % formaldehyde, washed with PBS, permeabilized with permeabilization buffer, then washed with wash buffer. The cells are incubated with nucleoprotein primary antibody IC7C7. Following primary staining, cells are washed with wash buffer and incubated in a solution of with Alexa fluor 488 and DAPI. Infected and uninfected cells are visualized and analyzed by Gen5 software. The assay has been performed by Icahn School of Medicine at Mount Sinai.; assay type: organism-based, Homo sapiens
SARS-CoV-2 [2] = test: as §1, with “iPSC-Pneumocyte” for “HeLa-ACE2”, “to” for “to drug”; assay type: organism-based, Homo sapiens; settings: Severe acute respiratory syndrome coronavirus 2, Pneumocyte; for EC90: Baseline response 0 %, Maximum response 100 %
[3] = Severe acute respiratory syndrome coronavirus 2, HeLa-ACE2

CC(C)[C@@H](Nc1ncnc2[nH]c(-c3cnn(C)c3)cc12)c1ccc2c(c1)S(=O)(=O)CCC2
EC50 (SARS-CoV-2 [1]; [3]): > 20 µM | EC90 (SARS-CoV-2 [1]; Severe acute respiratory syndrome coronavirus 2, HeLa-ACE2, Baseline response 0 %, Hill slope -10.363, Maximum measured 119.22 %, Maximum response 100 %, Minimum measured 72.714 %, R squared 0.37): > 20 µM | EC50 (SARS-CoV-2 [2]): 7.59 µM | EC90 (SARS-CoV-2 [2]; Hill slope -0.905, Maximum measured 103.795 %, Minimum measured 0.206 %, R squared 0.828): > 50 µM

Cc1ncc(-c2cc3c(N[C@@H](c4ccc5c(c4)OCCO5)C(C)C)ncnc3[nH]2)cn1
EC50 (SARS-CoV-2 [1]; [3]): 4.51 µM | EC90 (SARS-CoV-2 [1]; Severe acute respiratory syndrome coronavirus 2, HeLa-ACE2, Baseline response 0 %, Hill slope -0.659, Maximum measured 95.537 %, Maximum response 100 %, Minimum measured 29.329 %, R squared 0.973): > 20 µM | EC90 (SARS-CoV-2 [1]; Severe acute respiratory syndrome coronavirus 2, HeLa-ACE2, Baseline response 0 %, Hill slope -1.195, Maximum measured 100.014 %, Maximum response 100 %, Minimum measured 14.25 %, R squared 0.982): > 20 µM | EC50 (SARS-CoV-2 [1]; hela-ace2): 4.51 µM | EC50 (SARS-CoV-2 [2]): 15.7 µM | EC90 (SARS-CoV-2 [2]; EC90 CI (lower) 1.051 uM, EC90 CI (upper) 45.178 uM, Hill slope -2.659, Maximum measured 160.084 %, Minimum measured 9.251 %, R squared 0.626): 36 µM

CC(C)[C@@H](Nc1ncnc2[nH]c(-c3cnn(CC(N)=O)c3)cc12)c1ccc2c(n1)OCCO2
EC50 (SARS-CoV-2 [1]; [3]): > 20 µM | EC90 (SARS-CoV-2 [1]; Severe acute respiratory syndrome coronavirus 2, HeLa-ACE2, Maximum measured 122.738 %, Minimum measured 101.22 %): > 20 µM | EC50 (SARS-CoV-2 [2]): > 50 µM | EC90 (SARS-CoV-2 [2]; Hill slope -0.097, Maximum measured 94.962 %, Minimum measured 56.467 %, R squared 0.078): > 50 µM

CNC(=O)Cn1cc(-c2cc3c(N[C@H](c4ccc5c(c4)S(=O)(=O)CCC5)C(C)C)ncnc3[nH]2)cn1
EC50 (SARS-CoV-2 [1]; [3]): > 20 µM | EC90 (SARS-CoV-2 [1]; Severe acute respiratory syndrome coronavirus 2, HeLa-ACE2, Baseline response 0 %, Hill slope 0.543, Maximum measured 108.143 %, Maximum response 100 %, Minimum measured 92.194 %, R squared 0.052): > 20 µM | EC50 (SARS-CoV-2 [2]): > 50 µM | EC90 (SARS-CoV-2 [2]; Hill slope -0.24, Maximum measured 106.027 %, Minimum measured 60.326 %, R squared 0.31): > 50 µM

CC(C)(C)[C@@H](Nc1ncnc2[nH]c(-c3cnn(CC(N)=O)c3)cc12)c1ccc2c(n1)OCCO2
EC50 (SARS-CoV-2 [1]; [3]): > 20 µM | EC90 (SARS-CoV-2 [1]; Severe acute respiratory syndrome coronavirus 2, HeLa-ACE2, Maximum measured 115.43 %, Minimum measured 93.464 %): > 20 µM | EC50 (SARS-CoV-2 [2]): 11.4 µM | EC90 (SARS-CoV-2 [2]; Hill slope -0.772, Maximum measured 91.919 %, Minimum measured 11.328 %, R squared 0.786): > 50 µM

CC(C)[C@@H](Nc1ncnc2[nH]c(C(N)=O)cc12)c1ccc2c(c1)OCCO2
EC50 (SARS-CoV-2 [1]; [3]): > 20 µM | EC90 (SARS-CoV-2 [1]; Severe acute respiratory syndrome coronavirus 2, HeLa-ACE2, Maximum measured 95.443 %, Minimum measured 3.395 %): > 20 µM | EC90 (SARS-CoV-2 [1]; Severe acute respiratory syndrome coronavirus 2, HeLa-ACE2, Maximum measured 108.483 %, Minimum measured 88.736 %): > 20 µM | EC50 (SARS-CoV-2 [2]): > 50 µM | EC90 (SARS-CoV-2 [2]; Hill slope -3.392, Maximum measured 162.718 %, Minimum measured 51.066 %, R squared 0.094): > 50 µM

CC(C)[C@@H](Nc1ncnc2[nH]c(-c3cnn(C)c3C#N)cc12)c1ccc2c(c1)S(=O)(=O)CCC2
EC50 (SARS-CoV-2 [1]; [3]): 3.51 µM | EC90 (SARS-CoV-2 [1]; Severe acute respiratory syndrome coronavirus 2, HeLa-ACE2, Baseline response 0 %, EC90 CI (lower) 0.517 uM, EC90 CI (upper) 1.693 uM, Hill slope -1.661, Maximum measured 114.163 %, Maximum response 100 %, Minimum measured 4.545 %, R squared 0.935): 13.2 µM | EC50 (SARS-CoV-2 [2]): 0.411 µM | EC90 (SARS-CoV-2 [2]; EC90 CI (lower) 0.002 uM, EC90 CI (upper) 0.075 uM, Hill slope -0.637, Maximum measured 75.192 %, Minimum measured 0.111 %, R squared 0.781): 13 µM

CC(C)[C@@H](Nc1ncnc2[nH]c(-c3cnn(C)n3)cc12)c1ccc2c(c1)OCCO2
EC50 (SARS-CoV-2 [1]; [3]): 5.33 µM | EC90 (SARS-CoV-2 [1]; Severe acute respiratory syndrome coronavirus 2, HeLa-ACE2, Baseline response 0 %, Hill slope -0.7, Maximum measured 92.76 %, Maximum response 100 %, Minimum measured 27.109 %, R squared 0.91): > 20 µM | EC90 (SARS-CoV-2 [1]; Severe acute respiratory syndrome coronavirus 2, HeLa-ACE2, Baseline response 0 %, Hill slope -0.882, Maximum measured 101.658 %, Maximum response 100 %, Minimum measured 24.481 %, R squared 0.934): > 20 µM | EC50 (SARS-CoV-2 [1]; hela-ace2): 6.65 µM | EC50 (SARS-CoV-2 [2]): 13.3 µM | EC90 (SARS-CoV-2 [2]; EC90 CI (lower) 0.166 uM, EC90 CI (upper) 294.285 uM, Hill slope -3.414, Maximum measured 157.709 %, Minimum measured 4.934 %, R squared 0.471): 25.3 µM

CC(C)[C@@H](Nc1ncnc2[nH]c(-c3cnn(CC(N)=O)c3)cc12)c1ccc2c(c1)OCCO2
EC50 (SARS-CoV-2 [1]; [3]): > 50 µM | EC90 (SARS-CoV-2 [1]; Severe acute respiratory syndrome coronavirus 2, HeLa-ACE2, Baseline response 0 %, Hill slope -10.038, Maximum measured 122.799 %, Maximum response 100 %, Minimum measured 73.654 %, R squared 0.191): > 50 µM | EC50 (SARS-CoV-2 [2]): 37.1 µM | EC90 (SARS-CoV-2 [2]; Hill slope -4.011, Maximum measured 96.462 %, Minimum measured 23.083 %, R squared 0.242): > 50 µM
